Assay results: patent US20250186379A1, “METHODS AND AGENTS FOR DECREASING INSULIN RESISTANCE” (Whitehead Institute for Biomedical Research, priority 2021, published 2025)

Tests used:
[1] = system: lipogenic and gluconeogenesis genes (FASN, PCK1); test: Expression of lipogenic and gluconeogenesis genes (RNA-seq, RT-qPCR) in HepG2 cells; assay type: cell-based, human
Protocol: RNA was extracted using TRIzol™ reagent (Thermo Fisher Scientific, 15596026) following the manufacturer's instructions. cDNA synthesis was performed using qScript cDNA Supermix (QuantaBio, 95048-500) according to the manufacturer's instructions, using 1000 ng RNA as starting material.
qPCR was performed on a Thermo Fisher Scientific QuantStudio 6 machine using Fast SYBR™ Green Master Mix (Thermo Fisher, 4385618) and primers (listed below) according to the manufacturer's instructions. Expression data is presented after calculating the relative expression compared with the housekeeping gene RPLP0, using the equation Relative Quantification (RQ)=100/(2^(Target Gene Ct—RPLP0 Ct). When data is reported relative to a sample condition, the condition of reference was set as 1 and the data of the other conditions were reported as a ratio (condition/condition of reference).
RNA sequencing was performed by the Whitehead Institute Genome Technology Core. Libraries were prepared using the KAPA HyperPrep stranded RNA kit (Roche, KK8540) following manufacturer's instructions. Samples were sequenced on a HiSeq2500 in High-Output mode generating 50 bases, single-end reads.
RNA-sequencing (RNA-seq) bioinformatics analysis was performed on the Whitehead High-Performance Computing Facility using the nf-core RNA-seq pipeline v1.4.2^13 with Nextflow v20.04.1. Quality control of .fastq files was performed with FastQC v0.11.8. The reads were single-end and the strandedness was set to reverse. Low quality sequences were trimmed using Trim Galore!v0.6.4. Alignment was performed against the hg19 genome assembly using STAR v2.6.1d^17 and duplicates were marked using Picard MarkDuplicates v2.21.1. Quantification of transcripts was performed using featureCounts v1.6.4^18. Differential expression analysis was performed using edgeR v3.26.5^19. deepTools v3.3.1^20, dupRadar v1.14.0^21, Qualimap v.2.2.2-dev^22, and MultiQC v1.7 were used for quality control. […]

HepG2 cells = test: Stable isotope tracing for lipogenesis in HepG2 cells; assay type: cell-based, human
Protocol: To wash out insulin, cells were washed with EMEM (ATCC 30-2003) seven times, including: three quick washes, three 5-minute washes and a long 20 minute-wash in EMEM at 37° C. Cells were then cultured in EMEM supplemented with 1 mM Sodium acetate-^13C2(Sigma Aldrich, 282014) and with either 0 nM insulin or 1 nM insulin for 36 hours. Media was replenished after 24 hours. Cells were then processed for metabolite isolation (see below).
Metabolite isolation from HepG2 cells: cells were washed in ice-cold PBS (Life Technologies, AM9625), 500 μl of cold 80% MeOH (shared by the Metabolite Profiling Core Facility) was added per well of a 6-well plate and the plate was placed at −80° C. for at least 15 minutes. Following the −80 incubation, the plate was scraped on dry ice and the solution was transferred to a 1.5 ml tube and then vortexed for 5 minutes. To remove cellular debris, the samples were centrifuged at maximum speed for 10 minutes at 4° C. and the supernatant was transferred to a new 1.5 mL tube on dry ice. To remove solvents, the samples were lyophilized using Refrigerated CentriVap Benchtop Vacuum Concentrator connected to a CentriVap-105 Cold Trap (Labconco). Metabolite pellets were re-suspended in LC-MS grade water (ThermoFisher) and vortexed for 10 minutes at 4° C. Samples were centrifuged at 16,000 g for 10 minutes at 4° C. and supernatant was moved into LC-MS vials. […]

[2] = cells exposed to pathologic levels (3 nM) of insulin for two days
[3] = insulin-sensitive HepG2 cells, 3 nM insulin 4 hours

insulin: insulin (Sigma Aldrich, I9278-5ML) used for acute stimulation and chronic physiological or pathological exposure
expression of the lipogenic gene FASN after insulin stimulation [1, 2]: unchanged | expression of gluconeogenesis genes [1, 3]: downregulation of gluconeogenesis genes | expression of lipogenic genes [1, 3]: upregulation of lipogenic genes | lipogenesis after insulin stimulation (HepG2 cells; [2]): unchanged | lipogenesis (HepG2 cells; insulin-sensitive HepG2 cells, 1 nM insulin 36 hours): increased lipogenesis
